The source of these data is US11046686B2, “Thiadiazole IRAK4 compounds” (Gilead Sciences, Inc., priority 2018, dated 2021).

The subject of the test is TNFα. Nature of the test: IRAK4 Monocyte TNFα Cell Based Assay. Further details: species or system human. To be noted: read-out: EC50 MONO TNF HTRF. On the procedure: IRAK4 Monocyte TNFα Cell Based Assay Procedure:
The cell suspension was then plated at a density of 5,000 cells/well onto black 384 well Greiner clear bottom plates. Plates were pre-spotted with test compounds and serially diluted in DMSO where 40 nL/well were delivered using the Echo 550 acoustic liquid dispenser (Labcyte®) for a final DMSO concentration of 0.1%. Plated cells were treated with compound for 1 hour at 37° C. Cells were then stimulated with 50 pg/ml of LPS (Sigma) excluding outside columns of plate used for unstimulated cell control wells. Cells were incubated for an additional 4 hours at 37° C. Cells were then spun out of the media and 5 μl of sample were taken and analyzed for total TNFα content using the TR-FRET Human TNFα detection system (CisBio). This system utilizes two labeled antibodies (cryptate and XL665) that bind to two different epitopes of the TNFα molecule and produce FRET signal proportional to the concentration of TNFα in the sample. Detection antibodies are mixed 50:50 and 5 μL were dispensed into each well. Plates were covered with clear seals and incubated at room temp overnight. […] Percent of control was calculated as follows: % Control=100×(Ratiosample−Ratio0% stimulation)/(Ratio100% Stimulation−Ratio0% Stimulation) where unstimulated cells (0% stimulation) were the negative control and stimulated cells (100% stimulation) were used as the positive control.

Where [1] appears, read: human monocytes, second part of Table 2, compounds 33-343, unit inferred.

Like-named read-outs stand apart in the source and are kept apart here.

Consider `CN1CCN(C(=O)N[C@@H]2[C@@H]3CC[C@H]2CN(c2nnc(-c4cnc(-c5ccc6cc(C#N)cnn56)cc4NC4(C)COC4)s2)C3)CC1` [Example 110, N-((1R,5S,8s)-3-(5-(6-(3-cyanopyrrolo[1,2-b]pyridazin-7-yl)-4-((3-methyloxetan-3-yl)amino)pyridin-3-yl)-1,3,4-thiadiazol-2-yl)-3-azabicyclo[3.2.1]octan-8-yl)-4-methylpiperazine-1-carboxamide], for which, under setting [1], the EC50 is 1.8 nM.

As to `CC(=O)N[C@H]1CN(c2nnc(-c3cnc(-c4ccc5cc(C#N)cnn45)cc3NC(C)C)s2)CC12CC2` [Compound 323], under setting [1], the concentration giving a half-maximal response (EC50) amounted to 3.7 nM.

Consider `CC(=O)NC1CN(c2nnc(-c3cnc(-c4ccc5cc(C#N)cnn45)cc3NC(C)C)s2)CC1(F)F` (centres unmarked) [Compound 327], for which, under setting [1], the EC50 turned out to be 10.2 nM.

On to `CC(=O)N[C@@H]1CCN(c2nnc(-c3cnc(-c4ccc5cc(C#N)cnn45)cc3NC(C)C)s2)C[C@@H]1O` [Example 63], for which the EC50 under setting [1] came out at 13.8 nM.

For `CC1(Nc2cc(-c3ccc4cc(C#N)cnn34)ncc2-c2nnc([C@H]3CC[C@H](NC(=O)C4CC4)CC3)s2)COC1` [Example 158, N-((1r,4r)-4-(5-(6-(3-cyanopyrrolo[1,2-b]pyridazin-7-yl)-4-((3-methyloxetan-3-yl)amino)pyridin-3-yl)-1,3,4-thiadiazol-2-yl)cyclohexyl)cyclopropanecarboxamide], the half-maximal effective concentration (EC50) under setting [1] turned out to be 19.8 nM.

As to `CC(C)Nc1cc(-c2ccc3cc(C#N)cnn23)ncc1-c1nnc(-n2cccn2)s1` [Compound 325], the half-maximal effective concentration (EC50) under setting [1] turned out to be 1000 nM.

For the molecule `CC(=O)N[C@@H]1[C@@H]2CC[C@H]1CN(c1nnc(-c3cnc(-c4ccc5cc(C#N)cnn45)cc3NC3CCOCC3)s1)C2` [Example 171, N-((1R,5S,8s)-3-(5-(6-(3-cyanopyrrolo[1,2-b]pyridazin-7-yl)-4-((tetrahydro-2H-pyran-4-yl)amino)pyridin-3-yl)-1,3,4-thiadiazol-2-yl)-3-azabicyclo[3.2.1]octan-8-yl)acetamide], under setting [1], the EC50 turned out to be 2.1 nM.

On to `CC(C)Nc1cc(-c2ccc3cc(C#N)cnn23)ncc1-c1nnc(C(=O)N[C@H]2C[C@@H](O)C2)s1` [Example 215, 5-(6-(3-cyanopyrrolo[1,2-b]pyridazin-7-yl)-4-(isopropylamino)pyridin-3-yl)-N-((1s,3s)-3-hydroxycyclobutyl)-1,3,4-thiadiazole-2-carboxamide], for which the EC50 under setting [1] stood at 3100 nM.

As for `CC(=O)N[C@@H]1[C@@H]2CC[C@H]1CN(c1nnc(-c3cnc(-c4ccc5cc(C#N)cnn45)cc3NC(C)C)s1)C2` [Example 38], the EC50 under setting [1] is 3.5 nM.

As for `COC(=O)N[C@H]1CC[C@H](c2nnc(-c3cnc(-c4ccc5cc(C#N)cnn45)cc3NC(C)C)s2)CC1` [Example 126, methyl ((1r,4r)-4-(5-(6-(3-cyanopyrrolo[1,2-b]pyridazin-7-yl)-4-(isopropylamino)pyridin-3-yl)-1,3,4-thiadiazol-2-yl)cyclohexyl)carbamate], under setting [1], the half-maximal effective concentration (EC50) worked out at 26.2 nM.

Take `CC(C)Nc1cc(-c2ccc3cc(C#N)cnn23)ncc1-c1nnc([C@H]2C[C@@](C)(O)C2)s1` [Example 199, 7-(5-(5-((1s,3s)-3-hydroxy-3-methylcyclobutyl)-1,3,4-thiadiazol-2-yl)-4-(isopropylamino)pyridin-2-yl)pyrrolo[1,2-b]pyridazine-3-carbonitrile]: under setting [1], the EC50 was determined as 38.3 nM.

Regarding `C[C@H](C#N)Nc1cc(-c2ccc3cc(C#N)cnn23)ncc1-c1nnc(N2C[C@H]3CC[C@@H](C2)[C@@H]3NC(=O)C2CC2)s1` [Example 148, N-((1R,5S,8S)-3-(5-(4-(((R)-1-cyanoethyl)amino)-6-(3-cyanopyrrolo[1,2-b]pyridazin-7-yl)pyridin-3-yl)-1,3,4-thiadiazol-2-yl)-3-azabicyclo[3.2.1]octan-8-yl)cyclopropanecarboxamide], for the setting “Homo sapiens, Monocyte, human monocytes, second part of Table 2, compounds 33-343, unit inferred”, the EC50 stood at 1.4 nM.

In the case of `CC(=O)N[C@@H]1[C@@H]2C[C@H]1CN(c1nnc(-c3cnc(-c4ccc5cc(C#N)cnn45)cc3NC3(C)COC3)s1)C2` [Example 175, N-((1R,5S,6s)-3-(5-(6-(3-cyanopyrrolo[1,2-b]pyridazin-7-yl)-4-((3-methyloxetan-3-yl)amino)pyridin-3-yl)-1,3,4-thiadiazol-2-yl)-3-azabicyclo[3.1.1]heptan-6-yl)acetamide], under setting [1], the concentration for a half-maximal effect (EC50) came to 9 nM.

`CC(C)Nc1cc(-c2ccc3cc(C#N)cnn23)ncc1-c1nnc(N2C[C@H]3CC[C@@H](C2)[C@@H]3Nc2ncccn2)s1` [Example 308, 7-(4-(isopropylamino)-5-(5-((1R,5S,8s)-8-(pyrimidin-2-ylamino)-3-azabicyclo[3.2.1]octan-3-yl)-1,3,4-thiadiazol-2-yl)pyridin-2-yl)pyrrolo[1,2-b]pyridazine-3-carbonitrile]: the EC50 under setting [1] came out at 18.4 nM.

As to `CC(C)Nc1cc(-c2ccc3cc(C#N)cnn23)ncc1-c1nnc(N2CC3CC(C2)N3C(=O)CN=S(C)(C)=O)s1` [Example 107, 7-(5-(5-(6-(2-((dimethyl(oxo)-16-sulfanylidene)amino)acetyl)-3,6-diazabicyclo[3.1.1]heptan-3-yl)-1,3,4-thiadiazol-2-yl)-4-(isopropylamino)pyridin-2-yl)pyrrolo[1,2-b]pyridazine-3-carbonitrile], where the note is “Homo sapiens, Monocyte”, the concentration for a half-maximal effect (EC50) came to 18.4 nM.

For `CC(=O)N[C@@H]1[C@@H]2CN(c3nnc(-c4cnc(-c5ccc6cc(C#N)cnn56)cc4NC(C)C)s3)C[C@@H]21` [Compound 239, N-((1R,5S,6r)-3-(5-(6-(3-cyanopyrrolo[1,2-b]pyridazin-7-yl)-4-(isopropylamino)pyridin-3-yl)-1,3,4-thiadiazol-2-yl)-3-azabicyclo[3.1.0]hexan-6-yl)acetamide], the EC50 under setting [1] came out at 4.9 nM.

In the case of `CC(C)Nc1cc(-c2ccc3cc(C#N)cnn23)ncc1-c1nnc(N2C[C@H]3CC[C@@H](C2)[C@@H]3NC(=O)C(C)(C)O)s1` [Example 85, N-((1R,5S,8s)-3-(5-(6-(3-cyanopyrrolo[1,2-b]pyridazin-7-yl)-4-(isopropylamino)pyridin-3-yl)-1,3,4-thiadiazol-2-yl)-3-azabicyclo[3.2.1]octan-8-yl)-2-hydroxy-2-methylpropanamide], the EC50 under setting [1] is 3.3 nM.

Regarding `CC(C)Nc1cc(-c2ccc3cc(C#N)cnn23)ncc1-c1nnc([C@H]2CC[C@H](NC(=O)C3CCN(C)CC3)CC2)s1` [Compound 340], under setting [1], the 50% effective concentration (EC50) stood at 9.1 nM.

In the case of `C[C@H](C#N)Nc1cc(-c2ccc3cc(C#N)cnn23)ncc1-c1nnc([C@H]2CC[C@H](NC(=O)C3CC3)CC2)s1` [Example 160, N-((1R,4r)-4-(5-(4-(((R)-1-cyanoethyl)amino)-6-(3-cyanopyrrolo[1,2-b]pyridazin-7-yl)pyridin-3-yl)-1,3,4-thiadiazol-2-yl)cyclohexyl)cyclopropanecarboxamide], under setting [1], the EC50 amounted to 2.8 nM.

Regarding `CC(=O)N1CC2CC(C1)N2c1nnc(-c2cnc(-c3ccc4cc(C#N)cnn34)cc2NC(C)C)s1` [Compound 261, 7-(5-(5-(3-acety1-3,6-diazabicyclo[3.1.1]heptan-6-yl)-1,3,4-thiadiazol-2-yl)-4-(isopropylamino)pyridin-2-yl)pyrrolo[1,2-b]pyridazine-3-carbonitrile], under setting [1], the EC50 turned out to be 18.3 nM.

Consider `CC1(Nc2cc(-c3ccc4cc(C#N)cnn34)ncc2-c2nnc(N3CC4CC(C3)N4C(=O)CN=S(C)(C)=O)s2)COC1` [Example 113, 7-(5-(5-(6-(2-((dimethyl(oxo)-16-sulfanylidene)amino)acetyl)-3,6-diazabicyclo[3.1.1]heptan-3-yl)-1,3,4-thiadiazol-2-yl)-4-((3-methyloxetan-3-yl)amino)pyridin-2-yl)pyrrolo[1,2-b]pyridazine-3-carbonitrile], for which, under setting [1], the 50% effective concentration (EC50) amounted to 47.4 nM.

In the case of `CC(C)Nc1cc(-c2ccc3cc(C#N)cnn23)ncc1-c1nnc(C(C)(C)O)s1` [Example 80, 7-(5-(5-(2-hydroxypropan-2-yl)-1,3,4-thiadiazol-2-yl)-4-(isopropylamino)pyridin-2-yl)pyrro1o[1,2-b]pyridazine-3-carbonitrile], the half-maximal effective concentration (EC50) under setting [1] came to 114 nM.

In the case of `CC(C)Nc1cc(-c2ccc3cc(C#N)cnn23)ncc1-c1nnc(N2CC3CC(C2)N3C(=O)N2CCN(C)CC2)s1` [Example 108, 7-(4-(isopropylamino)-5-(5-(6-(4-methylpiperazine-1-carbonyl)-3,6-diazabicyclo[3.1.1]heptan-3-yl)-1,3,4-thiadiazol-2-yl)pyridin-2-yl)pyrrolo[1,2-b]pyridazine-3-carbonitrile], the EC50 (Homo sapiens, Monocyte) stood at 20.6 nM.

In the case of `CC1(Nc2cc(-c3ccc4cc(C#N)cnn34)ncc2-c2nnc(N3CC4CC(C3)N4C(=O)C(C)(C)O)s2)COC1` [Example 112, 7-(5-(5-(6-(2-hydroxy-2-methylpropanoyl)-3,6-diazabicyclo[3.1.1]heptan-3-yl)-1,3,4-thiadiazol-2-yl)-4-((3-methyloxetan-3-yl)amino)pyridin-2-yl)pyrrolo[1,2-b]pyridazine-3-carbonitrile], the EC50 (Homo sapiens, Monocyte) came out at 13.1 nM.

Take `CCOC(=O)Cc1nnc(-c2cnc(-c3ccc4cc(C#N)cnn34)cc2NC(C)C)s1` [Example 318]: the 50% effective concentration (EC50) under setting [1] is 102 nM.

Regarding `CC(C)Nc1cc(-c2ccc3cc(C#N)cnn23)ncc1-c1nnc(N2C3CC2CN(C(=O)CN=S(C)(C)=O)C3)s1` [Compound 276, 7-(5-(5-(3-(2-((dimethyl(oxo)-16-sulfanylidene)amino)acetyl)-3,6-diazabicyclo[3.1.1]heptan-6-yl)-1,3,4-thiadiazol-2-yl)-4-(isopropylamino)pyridin-2-yl)pyrrolo[1,2-b]pyridazine-3-carbonitrile], the 50% effective concentration (EC50) under setting [1] worked out at 7.8 nM.
